Activity calls are given as the source filed them. No rule for the calls is given here.
Tested on: CCRIS mutagenicity, Ames/micronucleus/aberration tests
Test: CCRIS mutagenicity studies
[1] = Test System: AMES SALMONELLA TYPHIMURIUM, Strain/Indicator: TA1535, Metabolic Activation: NONE, Method: STANDARD PLATE

**Q.** How did the mutagenic call (End Point: IN VITRO CHROMOSOMAL ABERRATIONS, Test System: CHINESE HAMSTER OVARY CELLS, Metabolic Activation: NONE) turn out when `Nc1ccc(S(N)(=O)=O)cc1` was run?
**A.** Its mutagenic call is “inactive; negative”.

**Q.** What about the mutagenic call (End Point: IN VITRO CHROMOSOMAL ABERRATIONS, Test System: CHINESE HAMSTER OVARY CELLS, Metabolic Activation: RAT, LIVER, S-9, AROCLOR 1254) of the same compound?
**A.** Its mutagenic call is “inactive; negative”.

**Q.** What about the mutagenic call (Test System: AMES SALMONELLA TYPHIMURIUM, Strain/Indicator: TA98, Metabolic Activation: HAMSTER, LIVER, S-9, AROCLOR 1254, Method: STANDARD PLATE) of the same compound?
**A.** The mutagenic call was “inactive; negative”.

**Q.** What about the mutagenic call (Test System: AMES SALMONELLA TYPHIMURIUM, Strain/Indicator: TA98, Metabolic Activation: NONE, Method: STANDARD PLATE) of the same compound?
**A.** The mutagenic call was “inactive; negative”.

**Q.** What about the mutagenic call (Test System: AMES SALMONELLA TYPHIMURIUM, Strain/Indicator: TA98, Metabolic Activation: RAT, LIVER, S-9, AROCLOR 1254, Method: STANDARD PLATE) of the same compound?
**A.** Its mutagenic call is “inactive; negative”.

**Q.** And the mutagenic call (Test System: AMES SALMONELLA TYPHIMURIUM, Strain/Indicator: TA100, Metabolic Activation: HAMSTER, LIVER, S-9, AROCLOR 1254, Method: STANDARD PLATE)?
**A.** The mutagenic call was “inactive; negative”.

**Q.** What about the mutagenic call (Test System: AMES SALMONELLA TYPHIMURIUM, Strain/Indicator: TA100, Metabolic Activation: NONE, Method: STANDARD PLATE) of the same compound?
**A.** The mutagenic call was “inactive; negative”.

**Q.** What about the mutagenic call (Test System: AMES SALMONELLA TYPHIMURIUM, Strain/Indicator: TA100, Metabolic Activation: RAT, LIVER, S-9, AROCLOR 1254, Method: STANDARD PLATE) of the same compound?
**A.** Its mutagenic call is “inactive; negative”.

**Q.** And the mutagenic call (Test System: AMES SALMONELLA TYPHIMURIUM, Strain/Indicator: TA1535, Metabolic Activation: HAMSTER, LIVER, S-9, AROCLOR 1254, Method: STANDARD PLATE)?
**A.** The mutagenic call was “inactive; negative”.

**Q.** What about the mutagenic call [1] of the same compound?
**A.** Its mutagenic call is “inactive; negative”.

**Q.** What about the mutagenic call (Test System: AMES SALMONELLA TYPHIMURIUM, Strain/Indicator: TA1535, Metabolic Activation: RAT, LIVER, S-9, AROCLOR 1254, Method: STANDARD PLATE) of the same compound?
**A.** The mutagenic call was “inactive; negative”.

**Q.** What about the mutagenic call (Test System: AMES SALMONELLA TYPHIMURIUM, Strain/Indicator: TA1537, Metabolic Activation: HAMSTER, LIVER, S-9, AROCLOR 1254, Method: STANDARD PLATE) of the same compound?
**A.** Its mutagenic call is “inactive; negative”.

**Q.** What about the mutagenic call (Test System: AMES SALMONELLA TYPHIMURIUM, Strain/Indicator: TA1537, Metabolic Activation: NONE, Method: STANDARD PLATE) of the same compound?
**A.** Its mutagenic call is “inactive; negative”.

**Q.** And the mutagenic call (Test System: AMES SALMONELLA TYPHIMURIUM, Strain/Indicator: TA1537, Metabolic Activation: RAT, LIVER, S-9, AROCLOR 1254, Method: STANDARD PLATE)?
**A.** The mutagenic call was “inactive; negative”.

**Q.** What about the mutagenic call (Test System: AMES SALMONELLA TYPHIMURIUM, Strain/Indicator: TA1538, Metabolic Activation: HAMSTER, LIVER, S-9, AROCLOR 1254, Method: STANDARD PLATE) of the same compound?
**A.** Its mutagenic call is “inactive; negative”.

**Q.** And the mutagenic call (Test System: AMES SALMONELLA TYPHIMURIUM, Strain/Indicator: TA1538, Metabolic Activation: NONE, Method: STANDARD PLATE)?
**A.** Its mutagenic call is “inactive; negative”.

**Q.** What about the mutagenic call (Test System: AMES SALMONELLA TYPHIMURIUM, Strain/Indicator: TA1538, Metabolic Activation: RAT, LIVER, S-9, AROCLOR 1254, Method: STANDARD PLATE) of the same compound?
**A.** The mutagenic call was “inactive; negative”.

**Q.** And the mutagenic call (Test System: MOUSE LYMPHOMA, Strain/Indicator: L5178Y (TK+/TK-), Metabolic Activation: NONE, Method: SUSPENSION/PLATE)?
**A.** The mutagenic call was “inactive; negative”.

**Q.** And the mutagenic call (Test System: MOUSE LYMPHOMA, Strain/Indicator: L5178Y (TK+/TK-), Metabolic Activation: RAT, LIVER, S-9, AROCLOR 1254, Method: SUSPENSION/PLATE)?
**A.** Its mutagenic call is “inactive; negative”.

**Q.** And the mutagenic call (Test System: Mouse lymphoma, Strain/Indicator: L5178Y (tk+/tk-), Metabolic Activation: None, Method: Suspension/plate)?
**A.** Its mutagenic call is “inactive; negative”.

**Q.** What about the mutagenic call (Test System: Mouse lymphoma, Strain/Indicator: L5178Y (tk+/tk-), Metabolic Activation: Rat, Liver, S-9, Aroclor 1254, Method: Suspension/plate) of the same compound?
**A.** The mutagenic call was “inactive; negative”.

**Q.** `CCOP(=S)(OCC)SCCSCC` was tested. Which mutagenic call (End Point: In vivo micronucleus, Test System: Micronucleated polychromatic erythrocytes, Species: Mouse, Strain/Sex: Hsd/Win: NMRI/Male and female, Route: Intraperitoneal) did it give?
**A.** Its mutagenic call is “active; positive at 24 and 48 hr compared with the concurrent control, but equivocal com”.

**Q.** What about the mutagenic call [1] of the same compound?
**A.** The mutagenic call was “active; positive”.

**Q.** What about the mutagenic call (Test System: AMES SALMONELLA TYPHIMURIUM, Strain/Indicator: TA1535, Metabolic Activation: S-9 MIX, Method: STANDARD PLATE) of the same compound?
**A.** The mutagenic call was “active; positive”.

**Q.** What about the mutagenic call (Test System: E. coli polA test, Strain/Indicator: (K12)p3478/W3110, Metabolic Activation: None, Method: Plate test with 24 hr exposure) of the same compound?
**A.** Its mutagenic call is “inactive; negative”.

**Q.** What about the mutagenic call (Test System: E. coli polA test, Strain/Indicator: (K12)p3478/W3110, Metabolic Activation: S-9, Method: Plate test with 24 hr exposure) of the same compound?
**A.** The mutagenic call was “inactive; negative”.

**Q.** And the mutagenic call (Test System: UDS HUMAN FIBROBLASTS, Strain/Indicator: THY INCORP (NON-S-PHASE), Metabolic Activation: NONE, Method: LIQUID SCINTILLATION COUNTING)?
**A.** Its mutagenic call is “active; positive”.

**Q.** How did the mutagenic call (Test System: UDS RODENT CELLS, Strain/Indicator: THY INCORP (NON-S-PHASE), Metabolic Activation: NONE, Method: AUTORADIOGRAPHY) turn out when `CCOC(=O)C(C)NC(=O)C=[N+]=[N-]` (stereo unspecified) was run?
**A.** The mutagenic call was “active; positive”.

**Q.** What does the source list for `O.O.O.O.O.O.O=[N+]([O-])[O-].O=[N+]([O-])[O-].O=[N+]([O-])[O-].[La+3]`?
**A.** mutagenic call (Test System: AMES SALMONELLA TYPHIMURIUM, Strain/Indicator: TA97, Metabolic Activation: HAMSTER, LIVER, S-9, AROCLOR 1254 (10 OR 30%), Method: PREINCUBATION): inactive; negative; mutagenic call (Test System: AMES SALMONELLA TYPHIMURIUM, Strain/Indicator: TA97, Metabolic Activation: NONE, Method: PREINCUBATION): inactive; negative; mutagenic call (Test System: AMES SALMONELLA TYPHIMURIUM, Strain/Indicator: TA97, Metabolic Activation: RAT, LIVER, S-9, AROCLOR 1254 (10%), Method: PREINCUBATION): inactive; negative; mutagenic call (Test System: AMES SALMONELLA TYPHIMURIUM, Strain/Indicator: TA97, Metabolic Activation: RAT, LIVER, S-9, AROCLOR 1254 (30%), Method: PREINCUBATION): inactive; negative; mutagenic call (Test System: AMES SALMONELLA TYPHIMURIUM, Strain/Indicator: TA98, Metabolic Activation: HAMSTER, LIVER, S-9, AROCLOR 1254 (10 OR 30%), Method: PREINCUBATION): inactive; negative; mutagenic call (Test System: AMES SALMONELLA TYPHIMURIUM, Strain/Indicator: TA98, Metabolic Activation: NONE, Method: PREINCUBATION): inactive; negative; mutagenic call (Test System: AMES SALMONELLA TYPHIMURIUM, Strain/Indicator: TA98, Metabolic Activation: RAT, LIVER, S-9, AROCLOR 1254 (10%), Method: PREINCUBATION): inactive; negative; mutagenic call (Test System: AMES SALMONELLA TYPHIMURIUM, Strain/Indicator: TA98, Metabolic Activation: RAT, LIVER, S-9, AROCLOR 1254 (30%), Method: PREINCUBATION): inactive; negative; mutagenic call (Test System: AMES SALMONELLA TYPHIMURIUM, Strain/Indicator: TA100, Metabolic Activation: HAMSTER, LIVER, S-9, AROCLOR 1254 (10%), Method: PREINCUBATION): inactive; negative; mutagenic call (Test System: AMES SALMONELLA TYPHIMURIUM, Strain/Indicator: TA100, Metabolic Activation: HAMSTER, LIVER, S-9, AROCLOR 1254 (30%), Method: PREINCUBATION): inactive; negative; mutagenic call (Test System: AMES SALMONELLA TYPHIMURIUM, Strain/Indicator: TA100, Metabolic Activation: NONE, Method: PREINCUBATION): inactive; negative; mutagenic call (Test System: AMES SALMONELLA TYPHIMURIUM, Strain/Indicator: TA100, Metabolic Activation: RAT, LIVER, S-9, AROCLOR 1254 (10%), Method: PREINCUBATION): inactive; negative; mutagenic call (Test System: AMES SALMONELLA TYPHIMURIUM, Strain/Indicator: TA100, Metabolic Activation: RAT, LIVER, S-9, AROCLOR 1254 (30%), Method: PREINCUBATION): inactive; negative; mutagenic call (Test System: AMES SALMONELLA TYPHIMURIUM, Strain/Indicator: TA1535, Metabolic Activation: HAMSTER, LIVER, S-9, AROCLOR 1254 (10%), Method: PREINCUBATION): inactive; negative; mutagenic call (Test System: AMES SALMONELLA TYPHIMURIUM, Strain/Indicator: TA1535, Metabolic Activation: HAMSTER, LIVER, S-9, AROCLOR 1254 (30%), Method: PREINCUBATION): inactive; negative; mutagenic call (Test System: AMES SALMONELLA TYPHIMURIUM, Strain/Indicator: TA1535, Metabolic Activation: NONE, Method: PREINCUBATION): inactive; negative; mutagenic call (Test System: AMES SALMONELLA TYPHIMURIUM, Strain/Indicator: TA1535, Metabolic Activation: RAT, LIVER, S-9, AROCLOR 1254 (10%), Method: PREINCUBATION): inactive; negative; mutagenic call (Test System: AMES SALMONELLA TYPHIMURIUM, Strain/Indicator: TA1535, Metabolic Activation: RAT, LIVER, S-9, AROCLOR 1254 (30%), Method: PREINCUBATION): inactive; negative; mutagenic call (Test System: UDS HUMAN LYMPHOCYTES, Strain/Indicator: THYMIDINE INCORPORATION, Metabolic Activation: NONE, Method: LIQUID SCINTILLATION COUNTING): active; positive

**Q.** What does the source list for `[CH3][Sn]([CH3])([Cl])[Cl]`?
**A.** mutagenic call (Test System: AMES SALMONELLA TYPHIMURIUM, Strain/Indicator: TA98, Metabolic Activation: NONE, Method: SUSPENSION/PLATE): inactive; negative; mutagenic call (Test System: AMES SALMONELLA TYPHIMURIUM, Strain/Indicator: TA100, Metabolic Activation: NONE, Method: SUSPENSION/PLATE): inactive; negative

**Q.** Which results are given for `COc1cc(Cl)c(Cl)c(Cl)c1O`?
**A.** mutagenic call (Test System: CHINESE HAMSTER V-79, Strain/Indicator: V-79/6-THIOGUANINE, Metabolic Activation: NONE, Method: STANDARD PLATE): active; positive; mutagenic call (Test System: CHINESE HAMSTER V-79, Strain/Indicator: V-79/6-THIOGUANINE, Metabolic Activation: PRIMARY RAT HEPATOCYTES, Method: STANDARD PLATE): inactive; negative

— PubChem BioAssay AID1259407 (Chemical Carcinogenesis Research Information System (CCRIS), 2018)
